Columns and labels:
[1] = molecular target: Glycogen synthase kinase-3 beta (Homo sapiens, UniProt P49841); assay: Inhibitory activity against glycogen synthase kinase-3 (GSK-3beta).
[2] = molecular target: T1, cAMP-dependent protein kinase (PKA) (Homo sapiens, UniProt P22694+P17612+P22612); assay: Inhibitory activity against protein kinase A (PKA ); assay type: protein assay
[3] = molecular target: T1, cAMP-dependent protein kinase (PKA); assay: Inhibition of protein kinase A (PKA); assay type: protein assay

Glycogen synthase kinase-3 beta, sequence (P49841 whole entry): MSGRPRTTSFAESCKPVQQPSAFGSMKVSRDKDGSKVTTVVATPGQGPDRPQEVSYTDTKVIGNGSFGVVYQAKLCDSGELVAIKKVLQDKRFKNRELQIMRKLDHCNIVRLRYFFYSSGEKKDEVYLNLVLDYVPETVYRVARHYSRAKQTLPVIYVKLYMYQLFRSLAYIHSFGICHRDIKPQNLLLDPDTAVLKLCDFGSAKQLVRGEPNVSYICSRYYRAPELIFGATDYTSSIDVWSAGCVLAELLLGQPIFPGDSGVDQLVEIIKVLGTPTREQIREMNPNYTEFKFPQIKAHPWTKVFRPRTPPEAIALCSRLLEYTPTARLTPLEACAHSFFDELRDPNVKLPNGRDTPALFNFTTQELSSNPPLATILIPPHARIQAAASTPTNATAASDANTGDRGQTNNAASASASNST

| SMILES | IC50 [1] [µM] | IC50 [2] [µM] | IC50 [3] [µM] |
| --- | --- | --- | --- |
| O=C(CBr)c1ccccc1 | 5 | > 100 |  |
| O=C(CCl)c1ccc(Cl)s1 | 10 | > 100 |  |
| O=C(CCl)c1csc(C(=O)CCl)c1 | 1.5 | > 100 |  |
| Cc1ccsc1C(=O)CCl | 75 |  |  |
| Cc1ccc(C(=O)CCl)s1 | > 100 |  |  |
| O=C(CCl)c1cc(Br)c(Br)s1 | 1 | > 100 |  |
| O=C(CCl)c1ccc(Br)s1 | 10 | > 100 |  |
| O=C(CBr)c1ccc(Br)cc1 | 0.5 | > 100 |  |
| O=C(CCl)c1ccc(Cl)cc1 | 2.5 | > 100 |  |
| O=C(CCl)c1c(Br)sc(Cl)c1Cl | 2 |  | > 100 |
| Cc1c(C(=O)CCl)csc1C(=O)CCl | 5 | > 100 |  |
| CC(=O)c1ccc(C(=O)CCl)s1 | 50 |  |  |
| Cc1sc(C(=O)CCl)cc1C(=O)CCl | 5 |  |  |
| O=C(CCl)c1cc(Br)cs1 | 3 |  |  |
| O=C(CCl)c1c(Br)sc(Br)c1Br | 1 |  |  |
| CC(=O)c1csc(C(=O)CCl)c1 | 8 | > 100 |  |
| O=C(CCl)c1cc(Cl)c(Cl)s1 | 2.5 |  |  |
| O=C(CCl)c1cscc1Cl | 25 | > 100 |  |
| Cc1cc(C(=O)CCl)c(C)s1 | > 100 |  |  |
| O=C(CCl)c1cc(Cl)sc1Cl | 5 | > 100 |  |
| O=C(CCl)c1scc(Br)c1Br | 0.5 | > 100 |  |
| O=C(CCl)c1cccs1 | 50 |  |  |
| O=C(CBr)c1ccc(-c2ccccc2)cc1 | 2.5 | > 100 |  |
| Cc1csc(C(=O)CCl)c1 | > 100 |  |  |
| O=C(CCl)c1ccccc1 [PHENACYL CHLORIDE] | 50 |  |  |

From ChEMBL document CHEMBL1145133, “Thienyl and phenyl alpha-halomethyl ketones: new inhibitors of glycogen synthase kinase (GSK-3beta) from a library of compound searching” (J Med Chem, 2003)
